System: 695427-040-R-J1-PDC complex spheroid viability
Assay: Anticancer human tumor 695427-040-R-J1-PDC patient-derived colon adenocarcinoma cell line growth inhibition [POLQ]
Details: for IC50: curve of first compound; for viability, T/C: stronger effect = lower value
In short: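 Patient-derived tumour cells were co-cultured with HUVEC and mesenchymal stem cells as multicellular spheroids at 37 °C. They were treated with POLQ inhibitors (novobiocin, ART-558, RP6685) alone or combined with other agents. Top concentrations were at or near clinical Cmax (otherwise 10 microM; SN-38 at 1 microM), decreasing in half-log steps.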

[1] = second compound 0.0316 µM, first compound 0.0316 µM
[2] = second compound 0.0316 µM, first compound 0.1 µM
[3] = second compound 0.0316 µM, first compound 0.316 µM
[4] = second compound 0.0316 µM, first compound 1 µM
[5] = second compound 0.0316 µM, first compound 3.16 µM
[6] = second compound 0.0316 µM, first compound 10 µM
[7] = second compound 0.1 µM, first compound 0.0316 µM
[8] = second compound 0.1 µM, first compound 0.1 µM
[9] = second compound 0.1 µM, first compound 0.316 µM
[10] = second compound 0.1 µM, first compound 1 µM
[11] = second compound 0.1 µM, first compound 3.16 µM
[12] = second compound 0.1 µM, first compound 10 µM
[13] = second compound 0.316 µM, first compound 0.0316 µM
[14] = second compound 0.316 µM, first compound 0.1 µM
[15] = second compound 0.316 µM, first compound 0.316 µM
[16] = second compound 0.316 µM, first compound 1 µM
[17] = second compound 0.316 µM, first compound 3.16 µM
[18] = second compound 0.316 µM, first compound 10 µM
[19] = second compound 1 µM, first compound 0.0316 µM
[20] = second compound 1 µM, first compound 0.1 µM
[21] = second compound 1 µM, first compound 0.316 µM
[22] = second compound 1 µM, first compound 1 µM
[23] = second compound 1 µM, first compound 3.16 µM
[24] = second compound 1 µM, first compound 10 µM
[25] = second compound 3.16 µM, first compound 0.0316 µM
[26] = second compound 3.16 µM, first compound 0.1 µM
[27] = second compound 3.16 µM, first compound 0.316 µM
[28] = second compound 3.16 µM, first compound 1 µM
[29] = second compound 3.16 µM, first compound 3.16 µM
[30] = second compound 3.16 µM, first compound 10 µM
[31] = second compound 10 µM, first compound 0.0316 µM
[32] = second compound 10 µM, first compound 0.1 µM
[33] = second compound 10 µM, first compound 0.316 µM
[34] = second compound 10 µM, first compound 1 µM
[35] = second compound 10 µM, first compound 3.16 µM
[36] = second compound 10 µM, first compound 10 µM
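Note: spheroids exposed to compounds for seven days.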
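Throughout, for viability, T/C: 100% = DMSO vehicle control viability.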

Question: Which results are given for O=C(Nc1ccc(O)c(NS(=O)(=O)c2ccc(F)cc2)c1)c1ccc(-c2ccccc2)cc1 + Nc1ccc(C#CCN(C(=O)Cc2ncc(C(F)(F)F)cc2C(F)(F)F)c2ccc(F)cc2)nn1?
Answer: IC50 (second compound 0.0316 µM): > 10 µM; IC50 (second compound 0.1 µM): > 10 µM; IC50 (second compound 0.316 µM): > 10 µM; IC50 (second compound 1 µM): > 10 µM; IC50 (second compound 3.16 µM): > 10 µM; IC50 (second compound 10 µM): > 10 µM; viability, T/C [1]: 108%; viability, T/C [2]: 107%; viability, T/C [3]: 105%; viability, T/C [4]: 107%; viability, T/C [5]: 109%; viability, T/C [6]: 91.9%; viability, T/C [7]: 112%; viability, T/C [8]: 105%; viability, T/C [9]: 92.8%; viability, T/C [10]: 104%; viability, T/C [11]: 104%; viability, T/C [12]: 97.3%; viability, T/C [13]: 106%; viability, T/C [14]: 106%; viability, T/C [15]: 99.8%; viability, T/C [16]: 101%; viability, T/C [17]: 108%; viability, T/C [18]: 87.4%; viability, T/C [19]: 112%; viability, T/C [20]: 97.4%; viability, T/C [21]: 99.1%; viability, T/C [22]: 105%; viability, T/C [23]: 119%; viability, T/C [24]: 80.2%; viability, T/C [25]: 108%; viability, T/C [26]: 104%; viability, T/C [27]: 99.2%; viability, T/C [28]: 109%; viability, T/C [29]: 112%; viability, T/C [30]: 112%; viability, T/C [31]: 99%; viability, T/C [32]: 94%; viability, T/C [33]: 104%; viability, T/C [34]: 94.7%; viability, T/C [35]: 93.5%; viability, T/C [36]: 88.1%

Question: Which IC50 (second compound 0.0316 µM) does the source give for Cn1ncnc1[C@H]1c2n[nH]c(=O)c3cc(F)cc(c23)N[C@@H]1c1ccc(F)cc1 + Cc1cccc(N(C)C(=O)C2C(O)CCN2c2nc(C)cc(C(F)(F)F)c2C#N)c1 here?
Answer: > 0.1 µM

Question: And the IC50 (second compound 0.1 µM)?
Answer: > 0.1 µM

Question: And the IC50 (second compound 0.316 µM)?
Answer: > 0.1 µM

Question: And the IC50 (second compound 1 µM)?
Answer: > 0.1 µM

Question: What about the IC50 (second compound 3.16 µM) of the same molecule?
Answer: > 0.1 µM

Question: What about the IC50 (second compound 10 µM) of the same molecule?
Answer: > 0.1 µM

Question: And the viability, T/C (second compound 0.0316 µM, first compound 0.000316 µM)?
Answer: 99.1%

Question: And the viability, T/C (second compound 0.0316 µM, first compound 0.001 µM)?
Answer: 97.2%

Question: What about the viability, T/C (second compound 0.0316 µM, first compound 0.00316 µM) of the same molecule?
Answer: 102%

Question: What about the viability, T/C (second compound 0.0316 µM, first compound 0.01 µM) of the same molecule?
Answer: 99%

Question: What about the viability, T/C [1] of the same molecule?
Answer: 99.4%

Question: And the viability, T/C [2]?
Answer: 96.8%

Question: What about the viability, T/C (second compound 0.1 µM, first compound 0.000316 µM) of the same molecule?
Answer: 108%

Question: And the viability, T/C (second compound 0.1 µM, first compound 0.001 µM)?
Answer: 91.2%

Question: And the viability, T/C (second compound 0.1 µM, first compound 0.00316 µM)?
Answer: 98.8%

Question: And the viability, T/C (second compound 0.1 µM, first compound 0.01 µM)?
Answer: 102%

Question: And the viability, T/C [7]?
Answer: 102%

Question: And the viability, T/C [8]?
Answer: 96.7%

Question: And the viability, T/C (second compound 0.316 µM, first compound 0.000316 µM)?
Answer: 102%

Question: And the viability, T/C (second compound 0.316 µM, first compound 0.001 µM)?
Answer: 102%

Question: And the viability, T/C (second compound 0.316 µM, first compound 0.00316 µM)?
Answer: 96.6%

Question: What about the viability, T/C (second compound 0.316 µM, first compound 0.01 µM) of the same molecule?
Answer: 105%

Question: What about the viability, T/C [13] of the same molecule?
Answer: 107%

Question: What about the viability, T/C [14] of the same molecule?
Answer: 94.7%

Question: What about the viability, T/C (second compound 1 µM, first compound 0.000316 µM) of the same molecule?
Answer: 99.2%

Question: And the viability, T/C (second compound 1 µM, first compound 0.001 µM)?
Answer: 98.3%

Question: What about the viability, T/C (second compound 1 µM, first compound 0.00316 µM) of the same molecule?
Answer: 89.5%

Question: What about the viability, T/C (second compound 1 µM, first compound 0.01 µM) of the same molecule?
Answer: 93.2%

Question: What about the viability, T/C [19] of the same molecule?
Answer: 99.3%

Question: And the viability, T/C [20]?
Answer: 94.6%

Question: What about the viability, T/C (second compound 3.16 µM, first compound 0.000316 µM) of the same molecule?
Answer: 88.9%

Question: And the viability, T/C (second compound 3.16 µM, first compound 0.001 µM)?
Answer: 101%

Question: And the viability, T/C (second compound 3.16 µM, first compound 0.00316 µM)?
Answer: 92.5%

Question: What about the viability, T/C (second compound 3.16 µM, first compound 0.01 µM) of the same molecule?
Answer: 101%

Question: What about the viability, T/C [25] of the same molecule?
Answer: 102%

Question: What about the viability, T/C [26] of the same molecule?
Answer: 88.8%

Question: What about the viability, T/C (second compound 10 µM, first compound 0.000316 µM) of the same molecule?
Answer: 89.2%

Question: What about the viability, T/C (second compound 10 µM, first compound 0.001 µM) of the same molecule?
Answer: 87.4%

Question: And the viability, T/C (second compound 10 µM, first compound 0.00316 µM)?
Answer: 87.8%

Question: What about the viability, T/C (second compound 10 µM, first compound 0.01 µM) of the same molecule?
Answer: 88.6%

Question: What about the viability, T/C [31] of the same molecule?
Answer: 93.3%

Question: What about the viability, T/C [32] of the same molecule?
Answer: 90.4%

Question: How did the IC50 (second compound 0.0316 µM) turn out when CC1COCCN1c1cc(-c2ccnn2C)c2ccnc(-c3ccn[nH]3)c2n1 (stereo unspecified) + COC1C(OC(N)=O)C(O)C(Oc2ccc3c(O)c(NC(=O)c4ccc(O)c(CC=C(C)C)c4)c(=O)oc3c2C)OC1(C)C was run?
Answer: 1.21 µM

Question: What about the IC50 (second compound 0.1 µM) of the same molecule?
Answer: 1.13 µM

Question: And the IC50 (second compound 0.316 µM)?
Answer: 1.56 µM

Question: What about the IC50 (second compound 1 µM) of the same molecule?
Answer: 0.748 µM

Question: And the IC50 (second compound 3.16 µM)?
Answer: 1.21 µM

Question: What about the IC50 (second compound 10 µM) of the same molecule?
Answer: 1.47 µM

Question: What about the viability, T/C [1] of the same molecule?
Answer: 97.2%

Question: What about the viability, T/C [2] of the same molecule?
Answer: 83.3%

Question: What about the viability, T/C [3] of the same molecule?
Answer: 63.5%

Question: And the viability, T/C [4]?
Answer: 50.3%

Question: And the viability, T/C [5]?
Answer: 47%

Question: What about the viability, T/C [6] of the same molecule?
Answer: 44.8%

Question: What about the viability, T/C [7] of the same molecule?
Answer: 97.5%

Question: And the viability, T/C [8]?
Answer: 81.1%

Question: What about the viability, T/C [9] of the same molecule?
Answer: 64.2%

Question: And the viability, T/C [10]?
Answer: 49.9%

Question: And the viability, T/C [11]?
Answer: 44.3%

Question: And the viability, T/C [12]?
Answer: 44.7%

Question: And the viability, T/C [13]?
Answer: 104%

Question: What about the viability, T/C [14] of the same molecule?
Answer: 79.7%

Question: And the viability, T/C [15]?
Answer: 61.4%

Question: What about the viability, T/C [16] of the same molecule?
Answer: 51.2%

Question: And the viability, T/C [17]?
Answer: 48.5%

Question: What about the viability, T/C [18] of the same molecule?
Answer: 44.6%

Question: And the viability, T/C [19]?
Answer: 93.5%

Question: What about the viability, T/C [20] of the same molecule?
Answer: 85.9%

Question: And the viability, T/C [21]?
Answer: 58.2%

Question: What about the viability, T/C [22] of the same molecule?
Answer: 49.4%

Question: And the viability, T/C [23]?
Answer: 46.6%

Question: What about the viability, T/C [24] of the same molecule?
Answer: 41.8%

Question: What about the viability, T/C [25] of the same molecule?
Answer: 95.8%

Question: What about the viability, T/C [26] of the same molecule?
Answer: 86.8%

Question: And the viability, T/C [27]?
Answer: 63.3%

Question: What about the viability, T/C [28] of the same molecule?
Answer: 52.1%

Question: What about the viability, T/C [29] of the same molecule?
Answer: 47.6%

Question: What about the viability, T/C [30] of the same molecule?
Answer: 44.7%

Question: And the viability, T/C [31]?
Answer: 90.8%

Question: What about the viability, T/C [32] of the same molecule?
Answer: 80.6%

Question: What about the viability, T/C [33] of the same molecule?
Answer: 65.9%

Question: And the viability, T/C [34]?
Answer: 47.5%

Question: And the viability, T/C [35]?
Answer: 51%

Question: What about the viability, T/C [36] of the same molecule?
Answer: 46.2%
